According to article PMC12483982, “MTS1 regulates rice plant architecture by mediating phosphoinositide metabolism” (Plant Biotechnology Journal, 2025):

Target: T1, NGR5 (GST-NGR5) (Oryza sativa, UniProt X5HYT8)
T1 construct: gene SMOS1; recombinant GST fusion from E. coli Rosetta (DE3), glutathione sepharose, GST tag kept; NT-647 NHS labelled
T1 sequence (X5HYT8 1-425): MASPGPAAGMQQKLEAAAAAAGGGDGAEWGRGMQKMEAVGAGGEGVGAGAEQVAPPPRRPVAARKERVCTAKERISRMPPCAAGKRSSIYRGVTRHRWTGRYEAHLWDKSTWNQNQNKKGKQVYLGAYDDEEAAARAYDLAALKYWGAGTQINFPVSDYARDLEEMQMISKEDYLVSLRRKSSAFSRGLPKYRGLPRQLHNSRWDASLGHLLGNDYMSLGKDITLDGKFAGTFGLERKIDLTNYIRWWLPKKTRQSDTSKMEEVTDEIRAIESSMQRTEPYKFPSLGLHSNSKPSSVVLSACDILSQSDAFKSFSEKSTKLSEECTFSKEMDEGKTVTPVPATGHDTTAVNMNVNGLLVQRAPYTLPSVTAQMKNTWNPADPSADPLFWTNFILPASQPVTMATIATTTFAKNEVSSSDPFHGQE
Experiment: microscale thermophoresis (NT.[…])
Format: binding
Conditions: NT-647 NHS-labelled GST-NGR5 10 nM; phosphate buffer with 0.005% Tween-20; 30 min; also seen in lipid-protein overlay

Q: phosphatidylinositol 4-phosphate [PI4P] was tested. Which Kd did it give?
A: The Kd was 1.14 ± 0.6 µM.
